Structures are written as SMILES. Several values for one entry are separate records, joined by “and”; a condition that tells them apart may be missing. Identical values can stand only once. Toxic doses and inconclusive results are not listed.

The test system of this assay is B6C3F1 mice, ip Sarcoma M5076, median survival T/C. Description: NCI In Vivo Anticancer Drug Screen. Data for tumor model Sarcoma M5076 (intraperitoneal) in B6C3F1 mice. To be noted: endpoint: median survival time, higher = longer survival. The method, boiled down:
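Antitumour effect is judged in tumour-bearing mice by comparing survival after compound dosing against vehicle-only animals, reported as T/C.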

The mark [1] stands for this setting: dose: 25.0 mg/kg/injection, schedule: Q04DX004 (ip), vehicle: water.
[2] abbreviates: dose: 50.0 mg/kg/injection, schedule: Q04DX004 (ip), vehicle: water.
The mark [3] stands for this setting: dose: 100.0 mg/kg/injection, schedule: Q04DX004 (ip), vehicle: water.
Where [4] appears, read: dose: 200.0 mg/kg/injection, schedule: Q04DX004 (ip), vehicle: water.
Where [5] appears, read: dose: 25.0 mg/kg/injection, schedule: Q04DX004 (ip), vehicle: saline with Tween-80.
[6] abbreviates: dose: 50.0 mg/kg/injection, schedule: Q04DX004 (ip), vehicle: saline with Tween-80.
[7] abbreviates: dose: 100.0 mg/kg/injection, schedule: Q04DX004 (ip), vehicle: saline with Tween-80.
[8] abbreviates: dose: 200.0 mg/kg/injection, schedule: Q04DX004 (ip), vehicle: saline with Tween-80.
Where [9] appears, read: dose: 75.0 mg/kg/injection, schedule: Q04DX004 (ip), vehicle: saline with Tween-80.
Setting [10] is: dose: 150.0 mg/kg/injection, schedule: Q04DX004 (ip), vehicle: saline with Tween-80.
The mark [11] stands for this setting: dose: 600.0 mg/kg/injection, schedule: Q04DX004 (ip), vehicle: saline with Tween-80.

`COC(=O)C12OCC34C(CC5C(C)C6=CC(=O)OC6=CC5(C)C3C(O)C1O)OC(=O)C(O)C24` (stereo not given): the T/C is 107 % of control (dose: 0.25 mg/kg/injection, schedule: Q04DX003 (ip), vehicle: Klucel (hydroxypropylcellulose) (HPC)); 107 % of control (dose: 0.43 mg/kg/injection, schedule: Q04DX003 (ip), vehicle: Klucel (hydroxypropylcellulose) (HPC)); 111 % of control and 113 % of control (dose: 0.5 mg/kg/injection, schedule: Q04DX004 (ip), vehicle: Klucel (hydroxypropylcellulose) (HPC)); 103 % of control (dose: 0.72 mg/kg/injection, schedule: Q04DX003 (ip), vehicle: Klucel (hydroxypropylcellulose) (HPC)); 116 % of control and 122 % of control (dose: 1.0 mg/kg/injection, schedule: Q04DX004 (ip), vehicle: Klucel (hydroxypropylcellulose) (HPC)); 110 % of control (dose: 1.2 mg/kg/injection, schedule: Q04DX003 (ip), vehicle: Klucel (hydroxypropylcellulose) (HPC)). In addition, the T/C is, setting by setting: (dose: 2.0 mg/kg/injection, schedule: Q04DX003 (ip), vehicle: Klucel (hydroxypropylcellulose) (HPC)) 112 % of control; (dose: 2.0 mg/kg/injection, schedule: Q04DX004 (ip), vehicle: Klucel (hydroxypropylcellulose) (HPC)) 123 % of control; (dose: 4.0 mg/kg/injection, schedule: Q04DX004 (ip), vehicle: Klucel (hydroxypropylcellulose) (HPC)) 116 % of control.
Consider `C#CCN(Cc1ccc2nc(N)[nH]c(=O)c2c1)c1ccc(C(=O)NC(CCC(=O)O)C(=O)O)cc1` (stereo not given), for which the T/C was 98 % of control under setting [1]; 98 % of control and 118 % of control under setting [2]; 120 % of control under setting [3]; 162 % of control under setting [4]; 152 % of control and 175 % of control (dose: 400.0 mg/kg/injection, schedule: Q04DX004 (ip), vehicle: water).
Consider `CCCCNc1ccc2nnc(C)n2n1`, for which the T/C is, setting by setting: (dose: 25.0 mg/kg/injection, schedule: Q04DX004 (ip), vehicle: DMSO) 99 % of control; (dose: 50.0 mg/kg/injection, schedule: Q04DX004 (ip), vehicle: DMSO) 92 % of control and 100 % of control; (dose: 100.0 mg/kg/injection, schedule: Q04DX004 (ip), vehicle: DMSO) 94 % of control and 96 % of control; (dose: 200.0 mg/kg/injection, schedule: Q04DX004 (ip), vehicle: DMSO) 92 % of control and 101 % of control.
Turning to `S=c1sc2ccccc2n1CN1CCOCC1`, the T/C under setting [5] is 105 % of control and 107 % of control; the T/C under setting [6] is 95 % of control and 111 % of control; the T/C under setting [7] was 90 % of control and 104 % of control; the T/C under setting [8] is 96 % of control and 97 % of control.
On to `COC1C(CO)OC(n2c3c(Cl)cccc3c3c4c(c5c6cccc(Cl)c6[nH]c5c32)C(=O)NC4=O)C(O)C1O` (stereo not given), for which the T/C was 113 % of control (dose: 46.75 mg/kg/injection, schedule: Q04DX004 (ip), vehicle: distilled water + Tween-80); 116 % of control (dose: 50.0 mg/kg/injection, schedule: Q04DX004 (ip), vehicle: distilled water + Tween-80); 118 % of control (dose: 93.5 mg/kg/injection, schedule: Q04DX004 (ip), vehicle: distilled water + Tween-80); 117 % of control and 118 % of control (dose: 100.0 mg/kg/injection, schedule: Q04DX004 (ip), vehicle: distilled water + Tween-80); 118 % of control (dose: 200.0 mg/kg/injection, schedule: Q04DX004 (ip), vehicle: distilled water + Tween-80); 108 % of control (dose: 374.0 mg/kg/injection, schedule: Q04DX004 (ip), vehicle: distilled water + Tween-80). Moreover, the T/C (dose: 748.0 mg/kg/injection, schedule: Q04DX004 (ip), vehicle: distilled water + Tween-80) is 115 % of control and the T/C (dose: 800.0 mg/kg/injection, schedule: Q04DX004 (ip), vehicle: distilled water + Tween-80) is 117 % of control.
Consider `CC(=O)C[n+]1ccccc1Sc1ccc(Cl)cc1`, for which the T/C by setting is: under setting [5], 98 % of control; under setting [6], 86 % of control; under setting [7], 88 % of control.
In the case of `CCNC(=O)OCc1cnc(C)c(OC(=O)NCC)c1COC(=O)NCC`, the T/C runs as follows: under setting [6], 89 % of control; under setting [7], 90 % of control; under setting [8], 87 % of control; (dose: 400.0 mg/kg/injection, schedule: Q04DX004 (ip), vehicle: saline with Tween-80) 86 % of control; (dose: 800.0 mg/kg/injection, schedule: Q04DX004 (ip), vehicle: saline with Tween-80) 91 % of control.
On to `CC(C)NC(=O)OCc1c(COC(=O)NC(C)C)c(-c2ccc(Cl)c(Cl)c2)n2c1CCC2`, for which the T/C under setting [9] is 161 % of control; the T/C (dose: 108.0 mg/kg/injection, schedule: Q04DX004 (ip), vehicle: saline with Tween-80) is 188 % of control; the T/C under setting [10] is 186 % of control; the T/C (dose: 180.0 mg/kg/injection, schedule: Q04DX004 (ip), vehicle: saline with Tween-80) was 114 % of control; the T/C under setting [11] is 152 % of control.
Consider `Cn1c(-c2ccc(Br)cc2)cc2[nH]c(=S)nc(N)c2c1=O`, for which the T/C by setting is: under setting [6], 96 % of control; under setting [7], 92 % of control; under setting [8], 87 % of control.
For `CNC(=O)c1ccccc1CNC(=S)Nc1cccc(C)c1`, the T/C (dose: 37.5 mg/kg/injection, schedule: Q04DX004 (ip), vehicle: Klucel (hydroxypropylcellulose) (HPC)) was 92 % of control; the T/C (dose: 75.0 mg/kg/injection, schedule: Q04DX004 (ip), vehicle: Klucel (hydroxypropylcellulose) (HPC)) is 102 % of control; the T/C (dose: 150.0 mg/kg/injection, schedule: Q04DX004 (ip), vehicle: Klucel (hydroxypropylcellulose) (HPC)) was 99 % of control; the T/C (dose: 300.0 mg/kg/injection, schedule: Q04DX004 (ip), vehicle: Klucel (hydroxypropylcellulose) (HPC)) is 102 % of control.
As for `COC1CC(C)C(OC)c2cc(O)cc(c2O)NC(=O)/C(C)=C/C=C\C(C)C(OC(N)=O)/C(C)=C\C(C)C1OC` (stereo not given), the T/C is, setting by setting: (dose: 0.63 mg/kg/injection, schedule: Q01DX009 (ip), vehicle: saline + alcohol) 115 % of control; (dose: 1.25 mg/kg/injection, schedule: Q01DX009 (ip), vehicle: saline + alcohol) 111 % of control; (dose: 1.8 mg/kg/injection, schedule: Q01DX009 (ip), vehicle: saline + alcohol) 122 % of control; (dose: 2.5 mg/kg/injection, schedule: Q01DX009 (ip), vehicle: saline + alcohol) 107 % of control.
As for `CC(=O)Nc1ccc(O)c(O)c1`, the T/C was 107 % of control under setting [9]; 113 % of control under setting [10]; 105 % of control (dose: 300.0 mg/kg/injection, schedule: Q04DX004 (ip), vehicle: saline with Tween-80); 101 % of control under setting [11]; 104 % of control (dose: 1200.0 mg/kg/injection, schedule: Q04DX004 (ip), vehicle: saline with Tween-80).
For the compound `Cc1cc2nncn2c2nnnn12`, the T/C runs as follows: (dose: 12.5 mg/kg/injection, schedule: Q04DX004 (ip), vehicle: water) 101 % of control; under setting [1], 98 % of control; under setting [2], 95 % of control; under setting [3], 101 % of control; under setting [4], 98 % of control.
For `CC1(C)C(=O)NC(=O)c2ccccc21`, the T/C (dose: 25.0 mg/kg/injection, schedule: Q04DX004 (ip), vehicle: Klucel (hydroxypropylcellulose) (HPC)) was 109 % of control.
For the compound `COC(=O)C1(F)C(=O)NC(=O)NC1OC` (stereo not given), the T/C (dose: 50.0 mg/kg/injection, schedule: Q04DX004 (ip), vehicle: Klucel (hydroxypropylcellulose) (HPC)) was 100 % of control and 102 % of control; the T/C (dose: 100.0 mg/kg/injection, schedule: Q04DX004 (ip), vehicle: Klucel (hydroxypropylcellulose) (HPC)) was 106 % of control and 116 % of control; the T/C (dose: 200.0 mg/kg/injection, schedule: Q04DX004 (ip), vehicle: Klucel (hydroxypropylcellulose) (HPC)) was 104 % of control and 113 % of control; the T/C (dose: 400.0 mg/kg/injection, schedule: Q04DX004 (ip), vehicle: Klucel (hydroxypropylcellulose) (HPC)) is 109 % of control and 113 % of control; the T/C (dose: 800.0 mg/kg/injection, schedule: Q04DX004 (ip), vehicle: Klucel (hydroxypropylcellulose) (HPC)) is 102 % of control and 116 % of control.
With `O=C1C=C(N2CC2)C(=O)C(N2CC2)=C1N1CC1`, the T/C (dose: 1.56 micrograms/kg/injection, schedule: Q04DX004 (ip), vehicle: saline) is 99 % of control; the T/C (dose: 3.12 micrograms/kg/injection, schedule: Q04DX004 (ip), vehicle: saline) is 103 % of control; the T/C (dose: 6.25 micrograms/kg/injection, schedule: Q04DX004 (ip), vehicle: saline) was 111 % of control; the T/C (dose: 12.5 micrograms/kg/injection, schedule: Q04DX004 (ip), vehicle: saline) is 111 % of control; the T/C (dose: 25.0 micrograms/kg/injection, schedule: Q04DX004 (ip), vehicle: saline) is 114 % of control.

The values above are taken from PubChem BioAssay AID292 (DTP/NCI, 2004).
